The nature of one series: in vitro. As to conditions: rat, serum, pH 7.4.
For series [1] the following is noted: 24 h.
The conditions of series [2]: 48 h.

Where only a bound is given, the exact number is not on record here.

For `CC(C)C[C@H](NC(=O)[C@H](CC(=O)O)NC(=O)CNC(=O)[C@H](CCCNC(=N)N)NC(=O)[C@H](CC(C)C)NC(=O)[C@H](CC(N)=O)NC(=O)[C@@H]1CCCN1C(=O)[C@@H](NC(=O)[C@H](C)NC(=O)[C@H](CC(N)=O)NC(=O)CCOCCOCCOCCOCCOCCN)C(C)C)C(=O)N[C@@H](CCC(N)=O)C(=O)N[C@H](C(=O)N[C@@H](CC(C)C)C(=O)N[C@@H](C)C(=O)N[C@@H](CCC(N)=O)C(=O)N[C@@H](CCCCN)C(=O)N[C@H](C(=O)N[C@@H](C)C(=O)N[C@@H](CCCNC(=N)N)C(=O)N[C@H](C(=O)O)[C@@H](C)O)C(C)C)C(C)C` [Compound 20], in “in vitro”, the share remaining (commonly the share of the starting amount still present when the sample was taken) at 24 h was approximately 60% and the amount remaining at 48 h was approximately 40%. In the case of `CC(C)C[C@H](NC(=O)[C@H](CC(=O)O)NC(=O)CNC(=O)[C@H](CCCNC(=N)N)NC(=O)[C@H](CC(C)C)NC(=O)[C@H](CC(N)=O)NC(=O)[C@@H]1CCCN1C(=O)[C@@H](NC(=O)[C@H](CCCCNC(=O)CCCC[C@@H]1SC[C@@H]2NC(=O)N[C@@H]21)NC(=O)[C@H](CC(N)=O)NC(=O)CCOCCOCCOCCOCCOCCOCCOCCOCCOCCOCCOCCOCCOCCOCCOCCOCCOCCOCCOCCOCCNC(=O)CN(CCN(CCN(CC(=O)O)CC(=O)O)CC(=O)O)CC(=O)O)C(C)C)C(=O)N[C@@H](CCC(N)=O)C(=O)N[C@H](C(=O)N[C@@H](CC(C)C)C(=O)N[C@@H](C)C(=O)N[C@@H](CCC(N)=O)C(=O)N[C@@H](CCCCN)C(=O)N[C@H](C(=O)N[C@@H](C)C(=O)N[C@@H](CCCNC(=N)N)C(=O)N[C@H](C(=O)O)[C@@H](C)O)C(C)C)C(C)C` [Compound 30], the “peptide remaining intact in human plasma” value in series [1] is “around 80%”. For `CC(C)C[C@H](NC(=O)[C@H](CC(=O)O)NC(=O)CNC(=O)[C@H](CCCNC(=N)N)NC(=O)[C@H](CC(C)C)NC(=O)[C@H](CC(N)=O)NC(=O)[C@@H]1CCCN1C(=O)[C@@H](NC(=O)[C@H](C)NC(=O)[C@H](CC(N)=O)NC(=O)COCCOCCOCCOCCOCCOCCOCCOCCN)C(C)C)C(=O)N[C@@H](CCC(N)=O)C(=O)N[C@H](C(=O)N[C@@H](CC(C)C)C(=O)N[C@@H](C)C(=O)N[C@@H](CCC(N)=O)C(=O)N[C@@H](CCCCN)C(=O)N[C@H](C(=O)N[C@@H](C)C(=O)N[C@@H](CCCNC(=N)N)C(=O)N[C@H](C(=O)O)[C@@H](C)O)C(C)C)C(C)C` [Compound 19], the “peptide remaining intact in rat serum” value in series [2] is more than 58%. In addition, in “in vitro”, the share remaining at 24 h is more than 70%. In “in vitro”, `CC(C)C[C@H](NC(=O)[C@H](CC(=O)O)NC(=O)CNC(=O)[C@H](CCCNC(=N)N)NC(=O)[C@H](CC(C)C)NC(=O)[C@H](CC(N)=O)NC(=O)[C@@H]1CCCN1C(=O)[C@@H](NC(=O)[C@H](C)NC(=O)[C@H](CC(N)=O)NC(=O)COCCOCCOCCOCCOCCN)C(C)C)C(=O)N[C@@H](CCC(N)=O)C(=O)N[C@H](C(=O)N[C@@H](CC(C)C)C(=O)N[C@@H](C)C(=O)N[C@@H](CCC(N)=O)C(=O)N[C@@H](CCCCN)C(=O)N[C@H](C(=O)N[C@@H](C)C(=O)N[C@@H](CCCNC(=N)N)C(=O)N[C@H](C(=O)O)[C@@H](C)O)C(C)C)C(C)C` [Compound 18] yielded a share remaining at 24 h of approximately 60% and an amount remaining at 48 h of approximately 40%. Take `CC(C)C[C@H](NC(=O)[C@H](CC(=O)O)NC(=O)CNC(=O)[C@H](CCCNC(=N)N)NC(=O)[C@H](CC(C)C)NC(=O)[C@H](CC(N)=O)NC(=O)[C@@H]1CCCN1C(=O)[C@@H](NC(=O)[C@H](CCCCNC(=O)CCCC[C@@H]1SC[C@@H]2NC(=O)N[C@@H]21)NC(=O)[C@H](CC(N)=O)NC(=O)COCCOCCNC(=O)CN(CCN(CCN(CC(=O)O)CC(=O)O)CC(=O)O)CC(=O)O)C(C)C)C(=O)N[C@@H](CCC(N)=O)C(=O)N[C@H](C(=O)N[C@@H](CC(C)C)C(=O)N[C@@H](C)C(=O)N[C@@H](CCC(N)=O)C(=O)N[C@@H](CCCCN)C(=O)N[C@H](C(=O)N[C@@H](C)C(=O)N[C@@H](CCCNC(=N)N)C(=O)N[C@H](C(=O)O)[C@@H](C)O)C(C)C)C(C)C` [Compound 25]: the “peptide remaining intact in human plasma” value in series [1] is “around 80%”. In “in vitro”, `CC(C)C[C@H](NC(=O)[C@H](CC(=O)O)NC(=O)CNC(=O)[C@H](CCCNC(=N)N)NC(=O)[C@H](CC(C)C)NC(=O)[C@H](CC(N)=O)NC(=O)[C@@H]1CCCN1C(=O)[C@@H](NC(=O)[C@H](C)NC(=O)[C@H](CC(N)=O)NC(=O)CCOCCOCCOCCOCCOCCOCCOCCOCCOCCOCCOCCOCCOCCOCCOCCOCCOCCOCCOCCOCCN)C(C)C)C(=O)N[C@@H](CCC(N)=O)C(=O)N[C@H](C(=O)N[C@@H](CC(C)C)C(=O)N[C@@H](C)C(=O)N[C@@H](CCC(N)=O)C(=O)N[C@@H](CCCCN)C(=O)N[C@H](C(=O)N[C@@H](C)C(=O)N[C@@H](CCCNC(=N)N)C(=O)N[C@H](C(=O)O)[C@@H](C)O)C(C)C)C(C)C` [Compound 23] showed a share remaining at 24 h of approximately 90% and an amount remaining at 48 h of more than 70%.

For the origin of these results see article PMC9316855 (Molecules, 2022).
